Reference: ChEMBL document CHEMBL1130622, “N-(2-(4-hydroxyphenyl)ethyl)-4-chlorocinnamide: a novel antagonist at the 1A/2B NMDA receptor subtype” (Bioorg Med Chem Lett, 1998)

Legend:
Type in all cases: functional, Rattus norvegicus
[1] = Antagonistic activity towards NMDA receptor 1A/2A subtype was determined
[2] = Antagonistic activity towards NMDA receptor 1A/2B subtype was determined
[3] = Antagonistic activity towards NMDA receptor 1A/2C subtype was determined

SMILES	IC50 [1] [µM]	IC50 [2] [µM]	IC50 [3] [µM]
O=C(/C=C/c1ccccc1)NCCc1ccc(O)cc1	> 300	0.68	> 300
O=C(/C=C/c1ccc(O)cc1)NCCc1ccc(O)cc1 [N-P-COUMAROYL TYRAMINE]	> 300	21	200
O=C(/C=C/c1ccc(Cl)cc1)NCCc1cccc(O)c1	> 300	7.4	175
O=C(/C=C/c1ccc(Cl)cc1)NCCc1ccc(Cl)cc1	160	> 300	> 300
N#C/C(=C\C(=O)NCCc1ccc(O)cc1)c1ccc(Cl)cc1	> 300	9	> 300
N#C/C(=C\c1ccc(Cl)cc1)C(=O)NCCc1ccc(O)cc1	78	3.4	105
O=C(/C=C/c1ccc(Cl)cc1)NCCc1ccc(O)cc1	> 300	0.17	> 300
O=C(/C=C/c1ccc(Cl)cc1)NCCc1ccccc1	> 300	> 300	> 300
O=C(/C=C/c1ccc(O)cc1)NCCc1ccc(Cl)cc1	> 300	0.33	> 300
